Reference: patent publication US9265253B2, “Use of macrocyclic picolinamides as fungicides” (DOW AGROSCIENCES LLC, priority 2013, dated 2016)
Read-outs that look alike come from different tables or passages of the source.

Legend:
[1] = system: Mycosphaerella graminicola; Anamorph: Septoria tritici; test: Leaf Blotch of Wheat (SEPTTR) disease control; assay type: in vivo; conditions: Zymoseptoria tritici
Method in brief: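 Wheat seedlings (Yuma, first leaf emerged) sprayed to run-off with compound in acetone/water with 110 ppm Triton X-100, or track-sprayed as EC with 0.1% Trycol 5941. Septoria tritici spores inoculated before or after treatment. Dew chambers, then 20 °C greenhouse. Percent disease control derived from severity (0–100%) relative to untreated plants.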

[2] = system: Puccinia triticina; Synonym: Puccinia recondite f. Sp. Tritici; test: Wheat Brown Rust (PUCCRT) disease control; assay type: in vivo; conditions: Puccinia triticina, topical
Method in brief: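 Brown rust on first-leaf Yuma wheat: spore inoculation before or after spray application (acetone/Triton X-100 solution, or EC with Trycol in track spray), overnight 100% RH at 22 °C, disease developed at 24 °C. Severity scored 0–100% and converted to percent control against untreated.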

[3] = 24 h, 1 Day Protectant, rate 100 ppm, read-out: SEPTTR 1 DP disease control
[4] = 24 h, 1 Day Protectant, rate 121.5 g/H, read-out: SEPTTR 1 DP disease control
[5] = 72 h, 3 Day Curative, rate 100 ppm, read-out: SEPTTR 3 DC disease control
[6] = 72 h, 3 Day Curative, rate 121.5 g/H, read-out: SEPTTR 3 DC disease control
[7] = 24 h, 1 Day Protectant, rate 100 ppm, read-out: PUCCRT 1 DP disease control
[8] = 24 h, 1 Day Protectant, rate 121.5 g/H, read-out: PUCCRT 1 DP disease control
[9] = 72 h, 3 Day Curative, rate 100 ppm, read-out: PUCCRT 3 DC disease control
[10] = 72 h, 3 Day Curative, rate 121.5 g/H, read-out: PUCCRT 3 DC disease control

Compound | pest or weed control at 100 ppm [1, 3] | pest or weed control at 121.5 g/ha [1, 4] | pest or weed control at 100 ppm [1, 5] | pest or weed control at 121.5 g/ha [1, 6] | pest or weed control at 100 ppm [2, 7] | pest or weed control at 121.5 g/ha [2, 8] | pest or weed control at 100 ppm [2, 9] | pest or weed control at 121.5 g/ha [2, 10] | pest or weed control at 100 ppm ([1]; 24 h, Wheat Leaf Blotch, 1 Day Protectant, rate 100 ppm (high volume application), read-out: Disease control SEPTTR 1 DP) | pest or weed control at 121.5 g/ha ([1]; 24 h, Wheat Leaf Blotch, 1 Day Protectant, rate 121.5 g/H (low volume application), read-out: Disease control SEPTTR 1 DP) | pest or weed control at 100 ppm ([1]; 72 h, Wheat Leaf Blotch, 3 Day Curative, rate 100 ppm (high volume application), read-out: Disease control SEPTTR 3 DC) | pest or weed control at 121.5 g/ha ([1]; 72 h, Wheat Leaf Blotch, 3 Day Curative, rate 121.5 g/H (low volume application), read-out: Disease control SEPTTR 3 DC) | pest or weed control at 100 ppm ([2]; 24 h, Wheat Brown Rust, 1 Day Protectant, rate 100 ppm (high volume application), read-out: Disease control PUCCRT 1 DP) | pest or weed control at 121.5 g/ha ([2]; 24 h, Wheat Brown Rust, 1 Day Protectant, rate 121.5 g/H (low volume application), read-out: Disease control PUCCRT 1 DP) | pest or weed control at 100 ppm ([2]; 72 h, Wheat Brown Rust, 3 Day Curative, rate 100 ppm (high volume application), read-out: Disease control PUCCRT 3 DC) | pest or weed control at 121.5 g/ha ([2]; 72 h, Wheat Brown Rust, 3 Day Curative, rate 121.5 g/H (low volume application), read-out: Disease control PUCCRT 3 DC)
COc1ccnc(C(=O)N[C@H]2CCC[C@H](Cc3ccc(C)cc3)[C@@H](OCCCC(F)(F)F)[C@H](C)OC2=O)c1OCOC(C)=O [Compound F139] | 80 to 100% | 80 to 100% | 80 to 100% | 80 to 100% | 80 to 100% | 80 to 100% | 80 to 100% | 0 to 80% |  |  |  |  |  |  |  | 
COc1ccc(C[C@H]2CCC[C@H](NC(=O)c3nccc(OC)c3OC(C)=O)C(=O)O[C@@H](C)[C@@H]2OCC2CC2)cc1 [Compound F72] | 80 to 100% | 80 to 100% | 80 to 100% | 80 to 100% | 80 to 100% | 80 to 100% | 80 to 100% | 0 to 80% |  |  |  |  |  |  |  | 
COCCC(=O)Oc1c(OC)ccnc1C(=O)N[C@H]1CCC[C@H](Cc2ccc(OC)cc2)[C@@H](OCC2CC2)[C@H](C)OC1=O [Compound F195, 2-(((3S,7R,8R,9S)-8-(cyclopropylmethoxy)-7-(4-methoxybenzyl)-9-methyl-2-oxooxonan-3-yl)carbamoyl)-4-methoxypyridin-3-yl 3-methoxypropanoate] |  |  |  |  |  |  |  |  | 80 to 100% | 80 to 100% | 80 to 100% | 80 to 100% | 80 to 100% | 80 to 100% | 80 to 100% | 0 to 80%
COc1ccnc(C(=O)N[C@H]2CCC[C@H](Cc3ccc(F)cc3F)[C@@H](OCCCc3ccccc3)[C@H](C)OC2=O)c1O [Compound F56] | 80 to 100% |  | 0 to 80% |  | 80 to 100% |  | 0 to 80% |  |  |  |  |  |  |  |  | 
COc1ccc(C[C@H]2CCC[C@H](NC(=O)c3nccc(OC)c3O)C(=O)O[C@@H](C)[C@@H]2OCC(C)C)cc1 [Compound F32] | 80 to 100% |  | 80 to 100% |  | 80 to 100% |  | 0 to 80% |  |  |  |  |  |  |  |  | 
COc1ccnc(C(=O)N[C@H]2CCC[C@@H]3CCO[C@H]3[C@H](C)OC2=O)c1OC(C)=O [Compound F85] |  | 0 to 80% |  |  |  | 80 to 100% |  | 80 to 100% |  |  |  |  |  |  |  | 
CCOCC(=O)OCOc1c(OC)ccnc1C(=O)N[C@H]1CCC[C@H](Cc2ccc(F)cc2)[C@@H](OCC(F)F)[C@H](C)OC1=O [Compound F169] | 80 to 100% | 80 to 100% | 0 to 80% | 80 to 100% | 80 to 100% | 80 to 100% | 80 to 100% | 80 to 100% |  |  |  |  |  |  |  | 
COc1ccnc(C(=O)N[C@H]2CCC[C@H](CCOc3ccccc3)[C@@H](Oc3ccccc3)[C@H](C)OC2=O)c1O [Compound F44] | 80 to 100% |  | 80 to 100% |  | 80 to 100% |  | 80 to 100% |  |  |  |  |  |  |  |  | 
CC[C@H]1CCC[C@H](NC(=O)c2nccc(OC)c2OCOC(C)=O)C(=O)O[C@@H](C)[C@@H]1OCC(C)C [Compound F133] | 80 to 100% | 80 to 100% | 80 to 100% | 80 to 100% | 80 to 100% | 80 to 100% | 80 to 100% | 80 to 100% |  |  |  |  |  |  |  | 
COc1ccnc(C(=O)N[C@H]2CCC[C@@H]3CCO[C@H]3[C@H](C)OC2=O)c1OCOC(C)=O [Compound F143] | 0 to 80% | 0 to 80% | 0 to 80% |  | 80 to 100% | 80 to 100% | 80 to 100% | 80 to 100% |  |  |  |  |  |  |  | 
COc1ccnc(C(=O)N[C@H]2CCC[C@H](Cc3ccco3)[C@@H](OCC(C)C)[C@H](C)OC2=O)c1OCOC(C)=O [Compound F120] |  | 80 to 100% |  | 0 to 80% |  | 80 to 100% |  |  |  |  |  |  |  |  |  | 
CCOCC(=O)OCOc1c(OC)ccnc1C(=O)N[C@H]1CCC[C@H](Cc2ccc(OC)cc2)[C@@H](OCC(C)C)[C@H](C)OC1=O [Compound F179] | 80 to 100% | 80 to 100% | 80 to 100% | 80 to 100% | 80 to 100% | 80 to 100% | 80 to 100% | 0 to 80% |  |  |  |  |  |  |  | 
C=CCO[C@@H]1[C@@H](Cc2ccc(F)cc2)CCC[C@H](NC(=O)c2nccc(OC)c2O)C(=O)O[C@H]1C [Compound F12] | 80 to 100% |  | 80 to 100% |  | 0 to 80% |  | 80 to 100% |  |  |  |  |  |  |  |  | 
COc1ccnc(C(=O)N[C@H]2CCC[C@H](CC3CCCC3)[C@@H](Oc3ccccc3)[C@H](C)OC2=O)c1OC(C)=O [Compound F71] | 80 to 100% | 80 to 100% | 80 to 100% | 80 to 100% | 80 to 100% | 80 to 100% | 80 to 100% | 0 to 80% |  |  |  |  |  |  |  | 
COc1ccnc(C(=O)N[C@H]2CCC[C@H](CC3CCCC3)[C@@H](OCC(C)C)[C@H](C)OC2=O)c1O [Compound F37] | 80 to 100% |  |  |  | 0 to 80% |  | 0 to 80% |  |  |  |  |  |  |  |  | 
COc1ccnc(C(=O)N[C@H]2CCC[C@H](CCC(C)C)[C@@H](Oc3ccccc3)[C@H](C)OC2=O)c1O [Compound F1] | 80 to 100% |  | 80 to 100% |  | 80 to 100% |  | 0 to 80% |  |  |  |  |  |  |  |  | 
COc1ccnc(C(=O)N[C@H]2CCC[C@H](C)[C@@H](OCc3ccccc3)[C@H](C)OC2=O)c1OC(C)=O [Compound F77] | 80 to 100% | 80 to 100% | 80 to 100% | 80 to 100% | 80 to 100% | 80 to 100% | 80 to 100% | 80 to 100% |  |  |  |  |  |  |  | 
CCCO[C@@H]1[C@@H](CC2CCCC2)CCC[C@H](NC(=O)c2nccc(OC)c2OCOC(C)=O)C(=O)O[C@H]1C [Compound F122] | 80 to 100% | 80 to 100% | 80 to 100% | 80 to 100% | 80 to 100% | 80 to 100% | 80 to 100% | 80 to 100% |  |  |  |  |  |  |  | 
COc1ccnc(C(=O)N[C@H]2CCC[C@H](CCC(C)C)[C@@H](OC(=O)C3CCCC3)[C@H](C)OC2=O)c1O [Compound F8] | 80 to 100% |  | 80 to 100% |  | 80 to 100% |  | 80 to 100% |  |  |  |  |  |  |  |  | 
C=CCO[C@@H]1[C@@H](Cc2ccc(F)cc2)CCC[C@H](NC(=O)c2nccc(OC)c2OCOC(C)=O)C(=O)O[C@H]1C [Compound F100] | 80 to 100% | 80 to 100% | 80 to 100% | 80 to 100% | 80 to 100% | 80 to 100% | 80 to 100% | 0 to 80% |  |  |  |  |  |  |  | 
COc1ccnc(C(=O)N[C@H]2CCC[C@H](Cc3ccc(F)cc3)[C@@H](OCC(F)F)[C@H](C)OC2=O)c1OC(C)=O [Compound F69] | 80 to 100% | 80 to 100% | 80 to 100% | 80 to 100% | 80 to 100% | 80 to 100% | 80 to 100% | 80 to 100% |  |  |  |  |  |  |  | 
COc1ccnc(C(=O)N[C@H]2CCC[C@H](Cc3ccc(F)cc3)[C@@H](OCC(F)F)[C@H](C)OC2=O)c1OCOC(C)=O [Compound F103] | 80 to 100% | 80 to 100% | 80 to 100% | 80 to 100% | 80 to 100% | 80 to 100% | 80 to 100% | 80 to 100% |  |  |  |  |  |  |  | 
